Results reported in paper PMC5046141, “Discovery of Isoquinolinoquinazolinones as a Novel Class of Potent PPARγ Antagonists with Anti-adipogenic Effects” (Scientific Reports, 2016).
Substitutions are numbered along the chain they refer to.

Assays:
[1] = Cytotoxicity in 3T3-L1 cells; format: cell-based; conditions: mouse, read-out: cell viability
Experimental: Prior to testing the PPARγ antagonist potential of isoquinolinoquinazolinones, their cytotoxicity in 3T3-L1 cells (normal cells) was examined. […] These two compounds were then tested for PPARγ inhibitory activity.

C285G mutant PPARγ2 = molecular target: T1, C285G mutant PPARγ2 (Mus musculus, UniProt P37238, C313G); assay: PPRE-Luc reporter assay with C285G mutant PPARγ2 in 3T3-L1 cells; format: cell-based; conditions: 5 μM, 12 h
T1 construct: expressed in transfected cells; host or cells: 3T3-L1, pCS4 CMV vector
T1 sequence (P37238 1-505 C313G): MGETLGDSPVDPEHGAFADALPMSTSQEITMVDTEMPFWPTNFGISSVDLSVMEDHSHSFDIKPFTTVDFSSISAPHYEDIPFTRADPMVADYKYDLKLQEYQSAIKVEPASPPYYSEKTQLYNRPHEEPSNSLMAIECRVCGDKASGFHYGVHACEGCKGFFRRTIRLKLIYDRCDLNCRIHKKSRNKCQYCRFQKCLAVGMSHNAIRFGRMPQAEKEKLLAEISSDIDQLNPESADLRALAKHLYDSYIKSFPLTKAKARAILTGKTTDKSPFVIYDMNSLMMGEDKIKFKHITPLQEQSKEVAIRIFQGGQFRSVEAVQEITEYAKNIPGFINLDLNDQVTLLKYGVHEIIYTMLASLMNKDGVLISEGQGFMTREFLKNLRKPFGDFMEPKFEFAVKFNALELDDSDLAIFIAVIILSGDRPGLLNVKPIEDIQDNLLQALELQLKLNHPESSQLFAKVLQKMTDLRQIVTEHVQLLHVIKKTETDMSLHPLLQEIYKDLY
T1 sequence (P28700 1-467 partner): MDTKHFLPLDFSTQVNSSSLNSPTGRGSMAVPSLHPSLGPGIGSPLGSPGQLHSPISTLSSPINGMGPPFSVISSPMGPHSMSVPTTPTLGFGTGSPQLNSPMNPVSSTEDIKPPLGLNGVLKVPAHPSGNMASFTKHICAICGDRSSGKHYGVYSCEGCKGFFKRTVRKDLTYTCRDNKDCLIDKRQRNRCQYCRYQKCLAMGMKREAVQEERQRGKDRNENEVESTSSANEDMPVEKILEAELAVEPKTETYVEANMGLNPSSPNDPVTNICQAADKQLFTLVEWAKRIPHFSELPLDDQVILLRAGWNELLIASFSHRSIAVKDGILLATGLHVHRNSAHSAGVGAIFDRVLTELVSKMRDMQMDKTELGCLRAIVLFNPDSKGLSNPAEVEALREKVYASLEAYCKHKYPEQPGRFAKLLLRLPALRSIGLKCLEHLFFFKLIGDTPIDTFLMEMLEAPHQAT
Experimental: To investigate the contribution site on the PPARγ2 to the interaction with 8o, we generated mutant forms of the PPARγ2 (Fig. 5). […] Thus, we tested Cys-to-Gly (Cys285), Arg-to-Gly (Arg288) substitution mutants of PPARγ2. […] The results indicated 8o has interaction with both Cys285 and Arg288, which are in agreement with the docking study.
Figure 5 Mutational study. Residues Cys285 and Arg288 of PPARγ are important for 8o function. The transcriptional activity was determined in 3T3-L1 cells transiently co-transfected with PPRE-driven luciferase reporter gene (PPRE-Luc) and PPARγ2 (WT) or (C285G, R288G) expression vector. After 24 h of transfection, the cells were cultured with 5 μM GW9662 and 5 μM 8o respectively for 12 h. Luciferase activity was measured after 36 h. Error bars mean ± SD of at least three experiments. ^*P < 0.05, ^**P < 0.01.
For plasmids expressing PPARγ2, full length PPARγ2 (mouse, 1518 bp: NCBI Reference Sequence: NP_035276.2) was subcloned into CMV promoter-derived mammalian expression vector (pCS4). […]
3T3-L1 cells were transfected for indicated combinations of expression plasmids along with a luciferase reporter plasmid (PPRE-Luc). […] Luciferase activities were measured using a luciferase reporter assay kit (Promega, Madison, WI, USA). […]

R288G mutant PPARγ2 = molecular target: T2, R288G mutant PPARγ2 (Mus musculus, UniProt P37238, R316G); assay: PPRE-Luc reporter assay with R288G mutant PPARγ2 in 3T3-L1 cells; conditions: 5 μM, 12 h
T2 sequence (P37238 1-505 R316G): T1 sequence (P37238 1-505 C313G) with G313C, R316G
T2 sequence (P28700 1-467 partner): T1 sequence (P28700 1-467 partner)

effect of Cys285 to Gly substitution on the compound's inhibition of PPARγ2 activity (C285G mutant PPARγ2)	effect of Arg288 to Gly substitution on the compound's inhibition of PPARγ2 activity (R288G mutant PPARγ2)	SMILES	viability at 25 µM [1] [%]
–	–	COc1cc2cc3n(c(=O)c2cc1OC)CNc1ccc(Cl)cc1-3 [Compound 8n, 2-Chloro-10,11-dimethoxy-5H-isoquinolino[2,3-c]quinazolin-8(6H)-one]	> 70
abolished the inhibitory effect	abolished the inhibitory effect	COc1cc2cc3n(c(=O)c2cc1OC)CNc1cc(Cl)ccc1-3 [Compound 8o, 3-Chloro-10,11-dimethoxy-5H-isoquinolino[2,3-c]quinazolin-8(6H)-one]	> 70
abolished the inhibitory effect	–	O=C(Nc1ccccc1)c1cc([N+](=O)[O-])ccc1Cl [GW9662, reference compound]	–
